# From US11548850B2, “Development of a cofilin inhibitor for the treatment of hemorrhagic brain injury-induced neuroinflammation” (The University of Toledo, priority 2019, dated 2023)
# Target: cofilin (Homo sapiens, UniProt P23528)
# Assay: Cofilin inhibition by the compound still protected on one side (no method given)
# Settings: one side of the Formula I structure still protected (TBS)
# cofilin, sequence (P23528 whole entry): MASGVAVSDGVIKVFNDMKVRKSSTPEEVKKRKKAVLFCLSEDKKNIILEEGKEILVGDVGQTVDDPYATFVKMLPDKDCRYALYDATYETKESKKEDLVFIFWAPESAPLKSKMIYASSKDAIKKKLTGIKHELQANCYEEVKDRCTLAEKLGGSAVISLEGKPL
structure (smiles),measurement,value
CC(C)(C)c1ccc(O)c(CN(Cc2cc(C(C)(C)C)ccc2O[Si](C)(C)C(C)(C)C)C2CCC(NC(N)=O)CC2)c1 (stereo not shown) [SZ-2],cofilin inhibition,still works to inhibit cofilin
